One experiment addresses T1, Human Axl (Homo sapiens, UniProt P30530, Q764R).
T1 construct: Human Axl (residues H473-A894 with Q764R, 161 nM); purchased Eurofins Pharma Discovery Services UK Limited (KinaseProfiler service)
T1 sequence (P30530 473-894 Q764R): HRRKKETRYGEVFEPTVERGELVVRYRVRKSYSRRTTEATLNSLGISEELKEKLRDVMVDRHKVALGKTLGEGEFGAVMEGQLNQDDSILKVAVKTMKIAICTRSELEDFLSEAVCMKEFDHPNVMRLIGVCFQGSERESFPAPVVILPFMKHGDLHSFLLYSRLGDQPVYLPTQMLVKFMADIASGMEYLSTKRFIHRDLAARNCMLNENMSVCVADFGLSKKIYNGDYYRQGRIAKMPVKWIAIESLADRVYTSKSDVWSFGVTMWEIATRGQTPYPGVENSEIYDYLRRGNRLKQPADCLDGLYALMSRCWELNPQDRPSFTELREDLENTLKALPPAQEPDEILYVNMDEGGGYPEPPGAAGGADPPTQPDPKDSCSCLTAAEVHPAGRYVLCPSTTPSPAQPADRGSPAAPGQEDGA
Description: Human AXL kinase assay (33P-phosphoryl transfer radiometric, KinaseProfiler). The settings on record: biochemical activity; 10 μM ATP. As for the experimental part: (§1) Kinase activity and compound inhibition were investigated using the ^33P-Phosphoryl transfer radiometric kinase assay, performed using the KinaseProfiler™ service of Eurofins Pharma Discovery Services UK Limited. Dose-response experiments were performed using nine compound concentrations in a 96-well microtiter plate. For each assay, all compounds were prepared to a 50× final assay concentration (50 μM) in 100% DMSO, then diluted in a half-log series, with the final top concentration at 1 μM. This working stock of the compound was added to the assay well as the first component in the reaction, followed by the remaining components as detailed in the following assay protocols below. The positive control wells (100% kinase activity) contain all components of the reaction including 2% DMSO (control for solvent effects), except the compound of interest. Blank wells contain all components of the reaction, with the reference inhibitor, staurosporine. This reference compound was used to abolish kinase activity and generated the 0% kinase activity base-line. IC50 values were calculated by nonlinear regression analysis using the sigmoidal dose-response (variable slope) curve fit on XLFit version 5.3 (ID Business Solutions).
(§2) Human Axl (residues H473-A894 with Q764R, 161 nM) was incubated with 8 mM MOPS pH 7.0, 0.2 mM EDTA, 250 μM KKSRGDYMTMQIG, 10 mM magnesium acetate, and 10 μM [y-^33P-ATP]. The reaction was initiated by the addition of the Mg/ATP mix. After incubation for 40 minutes at room temperature, the reaction was stopped by the addition of phosphoric acid to a concentration of 0.5%. A reaction aliquot of 10 μL was then spotted onto a P30 filtermat and washed four times for 4 minutes in 0.425% phosphoric acid and once in methanol prior to drying and scintillation counting. Incorporated ^33P was measured using the Wallac Microbeta scintillation counter (Perkin Elmer).

The next experiment concerns the target Met (Homo sapiens, UniProt P08581). Description: Human Met kinase assay (33P-phosphoryl transfer radiometric, KinaseProfiler). The settings on record: biochemical activity; 10 μM ATP; read-out: c-Met IC50. Also noted: Human Met (residues R974-S1390 with A1209G and V1290L, 3.4 nM); purchased Eurofins Pharma Discovery Services UK Limited (KinaseProfiler service). As for the experimental part: as §1
as §2, with “Met” for “Axl”, “R974-S1390” for “H473-A894”, “A1209G and V1290L, 3.4” for “Q764R, 161”, “KKKGQEEEYVFIE, 1 mM sodium orthovanadate, 5 mM […],” for “KKSRGDYMTMQIG,”, “[γ-^33P-ATP].” for “[y-^33P-ATP].”

The values below come from patent publication US12503438B2, “Compounds for the treatment of kinase-dependent disorders” (Exelixis, Inc., priority 2019, dated 2025).

Bounds are passed on as bounds.

Sequence of Met (P08581 974-1390): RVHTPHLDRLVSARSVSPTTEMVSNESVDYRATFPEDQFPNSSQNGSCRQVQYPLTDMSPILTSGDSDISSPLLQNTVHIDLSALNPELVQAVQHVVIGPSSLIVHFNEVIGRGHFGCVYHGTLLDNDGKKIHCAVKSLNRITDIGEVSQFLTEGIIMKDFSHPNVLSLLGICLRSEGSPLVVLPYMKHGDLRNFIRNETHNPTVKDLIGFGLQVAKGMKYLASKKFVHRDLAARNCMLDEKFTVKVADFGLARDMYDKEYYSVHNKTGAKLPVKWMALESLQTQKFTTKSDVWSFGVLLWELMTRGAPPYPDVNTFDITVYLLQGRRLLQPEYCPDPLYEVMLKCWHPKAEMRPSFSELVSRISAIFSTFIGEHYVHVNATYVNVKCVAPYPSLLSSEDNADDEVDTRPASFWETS

In general, IC50 refers to the concentration that gives 50% inhibition. As to `CN1CCC(n2cc(-c3ccc4c(Oc5ccc(NC(=O)C6(C(=O)Nc7ccc(F)cc7)CC6)cc5)ccnc4c3)cn2)CC1` [Compound 61, 1-N′-(4-Fluorophenyl)-1-N-[4-[7-[1-(1-methylpiperidin-4-yl)pyrazol-4-yl]quinolin-4-yl]oxyphenyl]cyclopropane-1,1-dicarboxamide], the IC50 on Human Axl and on Met was not above 10 nM throughout.

As to `Cc1cc2c(Oc3ccc(NC(=O)C4(C(=O)Nc5ccc(F)cc5)CC4)cc3)ccnc2cc1-c1cnn(C)c1` [Compound 78, 1-N′-(4-Fluorophenyl)-1-N-[4-[6-methyl-7-(1-methylpyrazol-4-yl)quinolin-4-yl]oxyphenyl]cyclopropane-1,1-dicarboxamide], the 50% inhibitory concentration (IC50) against Human Axl and on Met was not above 10 nM throughout.

Turning to `CNC(=O)c1cc2c(Oc3ccc(NC(=O)C4(C(=O)Nc5ccc(F)cc5)CC4)cc3)ccnc2cc1-c1cnn(C)c1` [Compound 77, 1-N′-(4-Fluorophenyl)-1-N-[4-[6-(methylcarbamoyl)-7-(1-methylpyrazol-4-yl)quinolin-4-yl]oxyphenyl]cyclopropane-1,1-dicarboxamide], the values for the IC50 against Human Axl and on Met were 10 to 100 nM and not above 10 nM, respectively.

As to `O=C(Nc1ccc(F)cc1)C1(C(=O)Nc2ccc(Oc3ccnc4cc(-c5cnn(C6CCNCC6)c5)ccc34)cc2)CC1` [Compound 60, 1-N′-(4-Fluorophenyl)-1-N-[4-[7-(1-piperidin-4-ylpyrazol-4-yl)quinolin-4-yl]oxyphenyl]cyclopropane-1,1-dicarboxamide], the half-maximal inhibitory concentration (IC50) against Human Axl and at Met was not above 10 nM in each case.

Consider `CC(C)(C)n1cc(-c2ccc3c(Oc4ccc(NC(=O)C5(C(=O)Nc6ccc(F)cc6)CC5)cc4)ccnc3c2)cn1` [Compound 23, 1-N-[4-[7-(1-tert-Butylpyrazol-4-yl)quinolin-4-yl]oxyphenyl]-1-N′-(4-fluorophenyl)cyclopropane-1,1-dicarboxamide], for which the IC50 against Human Axl and at Met was 10 to 100 nM each time.

In the case of `COc1cc2c(Oc3ccc(NC(=O)C4(C(=O)Nc5ccc(F)cc5)CC4)cc3)ccnc2cc1-c1cnn(C)c1` [Compound 76, 1-N′-(4-Fluorophenyl)-1-N-[4-[6-methoxy-7-(1-methylpyrazol-4-yl)quinolin-4-yl]oxyphenyl]cyclopropane-1,1-dicarboxamide], the IC50 at Human Axl and at Met was not above 10 nM in each case.

Consider `O=C(Nc1ccc(F)cc1)C1(C(=O)Nc2ccc(Oc3ccnc4cc(-c5ccn[nH]5)ccc34)cc2)CC1` [Compound 68, 1-N′-(4-Fluorophenyl)-1-N-[4-[7-(1H-pyrazol-5-yl)quinolin-4-yl]oxyphenyl]cyclopropane-1,1-dicarboxamide], for which the IC50 is 10 to 100 nM at Human Axl and not above 10 nM on Met.

For `CC1Cc2cc(F)ccc2N1C(=O)C1(C(=O)Nc2ccc(Oc3ccnc4cc(-c5cnn(C)c5)ccc34)cc2)CC1` (centres unmarked) [Compound 80, 1-(5-Fluoro-2-methyl-2,3-dihydroindole-1-carbonyl)-N-[4-[7-(1-methylpyrazol-4-yl)quinolin-4-yl]oxyphenyl]cyclopropane-1-carboxamide], the IC50 against Human Axl and on Met was 10 to 100 nM throughout.

Consider `O=C(Nc1ccc(F)cc1)C1(C(=O)Nc2ccc(Oc3ccnc4cc(-c5cncnc5)ccc34)cc2)CC1` [Compound 27, 1-N′-(4-Fluorophenyl)-1-N-[4-(7-pyrimidin-5-ylquinolin-4-yl)oxyphenyl]cyclopropane-1,1-dicarboxamide], for which the IC50 against Human Axl and at Met was not above 10 nM each time.

Regarding `O=C(Nc1ccc(F)cc1)C1(C(=O)Nc2ccc(Oc3ccnc4cc(-c5cnn(C6CC6)c5)ccc34)cc2)CC1` [Compound 22, 1-N-[4-[7-(1-Cyclopropylpyrazol-4-yl)quinolin-4-yl]oxyphenyl]-1-N′-(4-fluorophenyl)cyclopropane-1,1-dicarboxamide], the IC50 is 10 to 100 nM on Human Axl and not above 10 nM on Met.

With `O=C(Nc1ccc(F)cc1)C1(C(=O)Nc2ccc(Oc3ccnc4cc(-c5cnn(CCN6CCOCC6)c5)ccc34)cc2)CC1` [Compound 19, 1-N′-(4-Fluorophenyl)-1-N-[4-[7-[1-(2-morpholin-4-ylethyl)pyrazol-4-yl]quinolin-4-yl]oxyphenyl]cyclopropane-1,1-dicarboxamide], the IC50 against Human Axl and at Met was not above 10 nM in each case.

As to `C[Si](C)(C)C#Cc1ccc2c(Oc3ccc(NC(=O)C4(C(=O)Nc5ccc(F)cc5)CC4)cc3)ccnc2c1` [Compound 63, 1-N′-(4-Fluorophenyl)-1-N-[4-[7-(2-trimethylsilylethynyl)quinolin-4-yl]oxyphenyl]cyclopropane-1,1-dicarboxamide], the figures for the IC50 against Human Axl and at Met were 100 to 1000 nM and 10 to 100 nM, respectively.

On to `O=C(Nc1ccc(F)cc1)C1(C(=O)Nc2ccc(Oc3ccnc4cc(-c5cnn(CCO)c5)ccc34)cc2)CC1` [Compound 18, 1-N′-(4-Fluorophenyl)-1-N-[4-[7-[1-(2-hydroxyethyl)pyrazol-4-yl]quinolin-4-yl]oxyphenyl]cyclopropane-1,1-dicarboxamide], for which the IC50 at Human Axl and on Met was not above 10 nM in each case.

`O=C(Nc1ccc(F)cc1)C1(C(=O)Nc2ccc(Oc3ccnc4cc(-c5cccnc5)ccc34)cc2)CC1` [Compound 25, 1-N′-(4-Fluorophenyl)-1-N-[4-(7-pyridin-3-ylquinolin-4-yl)oxyphenyl]cyclopropane-1,1-dicarboxamide]: the results for the concentration for half-maximal inhibition (IC50) on Human Axl and on Met were 10 to 100 nM and not above 10 nM, respectively.

Take `O=C(Nc1ccc(F)cc1)C1(C(=O)Nc2ccc(Oc3ccnc4cc(-c5ccnnc5)ccc34)cc2)CC1` [Compound 28, 1-N′-(4-Fluorophenyl)-1-N-[4-(7-pyridazin-4-ylquinolin-4-yl)oxyphenyl]cyclopropane-1,1-dicarboxamide]: the IC50 against Human Axl was 10 to 100 nM; at Met, not above 10 nM.

As to `O=C(Nc1ccc(F)cc1)C1(C(=O)Nc2ccc(Oc3ccnc4cc(-c5cnoc5)ccc34)cc2)CC1` [Compound 57, 1-N′-(4-Fluorophenyl)-1-N-[4-[7-(1,2-oxazol-4-yl)quinolin-4-yl]oxyphenyl]cyclopropane-1,1-dicarboxamide], the concentration for half-maximal inhibition (IC50) against Human Axl and on Met was not above 10 nM in each case.

With `CN(C(=O)C1(C(=O)Nc2ccc(Oc3ccnc4cc(-c5cnn(C)c5)ccc34)cc2)CC1)c1ccc(F)cc1` [Compound 82A, 1-N′-(4-Fluorophenyl)-1-N′-methyl-1-N-[4-[7-(1-methylpyrazol-4-yl)quinolin-4-yl]oxyphenyl]cyclopropane-1,1-dicarboxamide], the IC50 against Human Axl and on Met was 100 to 1000 nM in each case.

With `O=C(Nc1ccc(F)cc1)C1(C(=O)Nc2ccc(Oc3ccnc4cc(-c5cn[nH]c5)ccc34)cc2)CC1` [Compound 67, 1-N′-(4-Fluorophenyl)-1-N-[4-[7-(1H-pyrazol-4-yl)quinolin-4-yl]oxyphenyl]cyclopropane-1,1-dicarboxamide], the half-inhibitory concentration (IC50) on Human Axl and on Met was not above 10 nM throughout.

Turning to `Cn1cc(-c2ccc3c(Oc4ccc(NC(=O)C5(C(=O)N6CCc7cc(F)ccc76)CC5)cc4)ccnc3c2)cn1` [Compound 81, 1-(5-Fluoro-2,3-dihydroindole-1-carbonyl)-N-[4-[7-(1-methylpyrazol-4-yl)quinolin-4-yl]oxyphenyl]cyclopropane-1-carboxamide], the IC50 against Human Axl and at Met was not above 10 nM each time.
